Measured values as given in US20060258644A1, “Pyrrolobenzodiazepines and heteroaryl, aryl and cycloalkylamino ketone derivatives as follicle stimulating hormone receptor (FSH-R) antagonists” (Wyeth, priority 2005, published 2006).

How the values were obtained:
human FSH receptor = target: T1, human FSH receptor (Homo sapiens, UniProt P23945); experiment: FSH receptor-dependent CRE-luciferase reporter gene assay (CHO FSH-R 6CRE-Luc cells); format: cell-based; conditions: dose-response in presence of EC50 of purified human FSH; read-out: CRE IC50
T1 construct: host or cells: CHO-K1 (CHO FSH-R 6CRE-Luc, 1D7 cells)
T1 sequence (P23945 18-695): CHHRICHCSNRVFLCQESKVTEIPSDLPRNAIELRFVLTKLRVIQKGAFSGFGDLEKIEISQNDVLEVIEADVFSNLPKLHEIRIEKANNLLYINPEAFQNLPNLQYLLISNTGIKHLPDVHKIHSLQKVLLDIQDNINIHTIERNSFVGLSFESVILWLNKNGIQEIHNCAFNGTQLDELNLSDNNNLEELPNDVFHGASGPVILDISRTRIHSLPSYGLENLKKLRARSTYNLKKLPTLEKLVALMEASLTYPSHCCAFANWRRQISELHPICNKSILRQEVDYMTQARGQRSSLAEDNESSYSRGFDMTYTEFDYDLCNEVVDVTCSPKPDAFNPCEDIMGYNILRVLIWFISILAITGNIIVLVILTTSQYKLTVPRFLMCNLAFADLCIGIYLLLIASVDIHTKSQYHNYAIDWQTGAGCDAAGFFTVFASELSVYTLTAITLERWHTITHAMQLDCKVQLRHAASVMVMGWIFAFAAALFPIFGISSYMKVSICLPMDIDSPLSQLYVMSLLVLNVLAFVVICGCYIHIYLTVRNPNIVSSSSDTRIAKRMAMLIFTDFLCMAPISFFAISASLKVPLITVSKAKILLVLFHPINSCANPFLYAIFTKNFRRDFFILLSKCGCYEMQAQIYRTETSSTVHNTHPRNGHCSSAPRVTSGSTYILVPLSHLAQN
Description: Follicle-Stimulating Hormone Receptor-Dependent CRE-Luciferase Reporter Gene Assay for the Identification of Follicle-Stimulating Hormone (FSH) Antagonists
This procedure was used to identify and determine the relative potencies of human FSH receptor antagonists using a Chinese hamster ovarian cell line that stably produces the human FSH receptor and a luciferase reporter gene regulated by cAMP response elements.
The compounds were subsequently diluted in DMSO to working dilutions of 1 and 20 or 30 mM for 2-dose testing format and 1 μM-10 mM for dose-response format. The DMSO dilutions were diluted 500-fold in sterile growth medium [D-MEM/F-12 (GIBCO/BRL; Grand Island N.Y.) containing 15 mM HEPES, 2 mM 1-glutamine, pyridoxine hydrochloride, phenol red and 5% FetalClone II (HyClone Laboratories, Inc; Logan, Utah), 0.2% DMSO, 100 units penicillin G/ml, and 100 μg streptomycin sulfate/ml (GIBCO/BRL)]. The concentration of the vehicle in each of the compound dilutions was the same. • Positive Controls: Purified human FSH (>98%) was purchased from Cortex Biochem, Inc. (San Leandro, Calif.) and WAY-162002 (an FSH-R thiazolidinone antagonist) was obtained from the Wyeth Research compound repository. Preparation of Cells
The CHO FSH-R 6CRE-Luc cells (1D7 cells) were obtained from Affymax (Palo Alto, Calif.). These Chinese hamster ovary cells (CHO—K1) were genetically engineered to stably express the recombinant human FSH receptor gene and a luciferase reporter gene under the regulation of 6 copies of a cAMP response element. The cells were plated one day prior to treatment into 96-well white opaque plates at a density of 50,000 cells/100 μl/well in growth medium. On the day of treatment, the growth medium was removed from the wells by aspiration and 50 μl of fresh growth medium was added to each well. The cells were incubated at 37° C. in a humidified incubator with 5% CO2/95% air.
The treated cells were incubated for 4 hours at 37° C. in a humidified incubator with 5% CO2/95% air. At the end of-the incubation period, luciferase activity was measured by chemiluminescence using a commercially available kit (LucScreen, Tropix, Inc., Bedford, Mass.) according to the manufacturer's specifications, except that Buffer 1 and Buffer 2 were mixed together in equal proportion prior to the addition of 100 μl of the combined reagents to each well. Chemiluminescence was detected using a luminometer (EG & G Berthold Microlumat LB 96 P, Wallac, Gaithersburg, Md.) with chemiluminescence measured for 1 sec/well. Background luminescence was measured for each well prior to the addition of the LucScreen reagent.
In the 96-well 2-dose format, each compound was tested in duplicate at each dose. […] One plate was used to test a maximum of 22 compounds.
The EC50 of purified human FSH alone was tested in triplicate with each test compound. The doses chosen to test each compound were extrapolated from the initial 2-dose screening process. Along with the test compounds, purified human FSH was also tested in a dose response (0.03, 0.1, 0.3, 1, 3, 10, and 30 ng/ml) for a positive control and quality control. One plate was used for 3 test compounds and the FSH positive control.
Luciferase activity is expressed as relative light units/sec/well. Luciferase activity in antagonist was compared to the appropriate negative and positive controls. For 2-dose testing, results are reported as luciferase activity and are expressed as % inhibition of the response obtained from the EC50 of FSH. For dose-response testing, results are reported as IC50 values. Data were analyzed statistically by one-way analysis of variance with appropriate weighting and transformation and relevant paired test as determined by Biometrics (Wyeth Research, Princeton, N.J.). IC50 values were calculated using the Stat/Excel program developed by Biometrics with appropriate weighting and transformation.

hFSH-R = target: T2, hFSH-R (Homo sapiens, UniProt P23945); experiment: cAMP accumulation bio-assay in CHO-3D2 cells (hFSH-R), RIA; format: cell-based
T2 construct: expressed in transfected cells; host or cells: CHO-3D2 cells
T2 sequence (P23945 18-695): T1 sequence (P23945 18-695)
Procedure: The compounds were subsequently diluted in sterile assay medium consisting of Opti-MEM® I (Life Technologies) with 0.1% (w/v) BSA (Sigma), prior to use in the bio-assay. The final concentration of DMSO in the assay is 0.1%.
Plated cells are then incubated at 37° C. in a humidified 5% CO2/95% air, atmosphere.
On the day of the assay, cells were washed three times with 100 μl/well of assay medium consisting of Opti-MEM® I (Life Technologies) with 0.1% (w/v) BSA (Sigma). Medium was removed and 100 μl of assay medium was added to each well. Plates were incubated for an additional 30 minutes at 37° C. […] Reactions were terminated by the addition of 50 μl of 0.2N hydrochloric acid to each well and cAMP-accumulation was measured by radioimmunoassay (RIA) using a commercially available kit (Amersham).
All test compounds were evaluated in a dose-response paradigm ranging from 0.01 to 30 μM. Controls and test compounds were evaluated in quadruplicate in a 96-well format.
Data were analyzed by one-way analysis of variance and significant differences between treatments and control determined by Least Significant Difference test.
Test compounds were compared to the effect of purified human FSH.

`COc1ccccc1-c1ccc(C(=O)N2Cc3ccc(C(=O)CCc4cccnc4)n3Cc3ccccc32)cc1` [Example 3, 1-{10-[(2′-Methoxy-1,1′-biphenyl-4-yl)carbonyl]-10,11-dihydro-5H-pyrrolo[2,1-c][1,4]benzodiazepin-3-yl}-3-pyridin-3-ylpropan-1-one] showed an IC50 (human FSH receptor) of 6.82 µM, an IC50 (hFSH-R) of 2 µM and an Emax (hFSH-R; read-out: cAMP % efficacy) of 78%.
